Measurements as given in US5795891A, “Acylphenylglycine derivative and preventive and remedy for diseases caused by increased collagenase activity containing said compound as active ingredient” (Kanebo Ltd., priority 1993, dated 1998).
Where a name gives a salt, the structure may show the parent alone.

Legend:
[1] = tested on: adjuvant arthritis; assay: Adjuvant arthritis model: hind paw volume (swelling of adjuvant-uninjected hind paw); assay type: in vivo, male Lewis rats; conditions: 100 mg/kg at 12-hour intervals for 20 days; FIG. 1; t-test vs control
Protocol: (§1) 8-week old male Lewis rats (Charles River Japan, K.K.) were divided into 4 groups (normal control group, control group, and two test compound groups) of 7 animals each. Each of the rats of the control group and the test compound groups were intra-dermally injected with 0.6 mg of heat-killed M. butyricum in 0.1 ml of liquid paraffin suspension in their right hind paw to induce adjuvant arthritis. The test compounds were suspended in 0.5% CMC, and administered to the rats of the test compound group at a dose of 100 mg/kg per administration immediately after the injection of adjuvant and at 12-hour intervals thereafter over a period of 20 days. The rats of the control group received 0.5% CMC immediately after the injection of adjuvant and at 12-hour intervals thereafter over a period of 20 days. The rats of the normal control group were not injected with adjuvant but only administered 0.5% CMC analogously to the administration of the test compounds.
The volume of the hind paw was measured immediately before and on days 3, 7, 10, 14, 17 and 20 after the injection of adjuvant using a foot volume measuring apparatus. Analysis was made using t-test for superiority of the test compound group over the control group.
In the figure, lines n, c, y and d indicate the volume of the hind paw for the following groups, respectively: […]

[2] = tested on: adjuvant arthritis; assay: Adjuvant arthritis model: urinary hydroxyproline excretion; assay type: in vivo, male Lewis rats; conditions: for Urinary hydroxyproline excretion (ratio to creatinine): after day 20, 100 mg/kg at 12-hour intervals, control 94.3 ± 1.8, normal 71.8 ± 2.6
Protocol: as §1
(§2) After the last administration of the test compounds on day 20, the rats were transferred into metabolic cages, and urine samples were collected overnight without supply of food or water. Urine volume and the amounts of creatinine and hydroxyproline were determined by the following method, and urinary hydroxyproline excretion expressed in the ratio to creatinine. Statistical analysis was made according to the Tukey's method for the superiority of test compound group over the control group. Determination of creatinine was carried out using Creatinine TestWAKO (Wako Junyaku). Hydroxyproline was determined by first hydrolyzing the urine with 6N hydrochloric acid, then isolation on high performance liquid chromatograph equipped with ion-exchange column (Hitachi Gel #2619), reaction with O-phthalaldehyde to form a hydroxyproline derivative, and measurement on a fluorophotometer.

[3] = tested on: adjuvant arthritis; assay: Adjuvant arthritis model: serum calcium concentration; assay type: in vivo, male Lewis rats; conditions: 100 mg/kg at 12-hour intervals for 20 days; for effect on increase in serum calcium concentration (in words): vs control; for Serum calcium conc.: day 21, control 9.5 ± 0.1, normal 8.6 ± 0.1, ** P < 0.01 vs control (Compound D)
Protocol: as §1
Measurement was carried out on the same sample as above 2) using Calcium TestWAKO (Wako Junyaku), and statistical analysis was made according to the Dunnett's method for the superiority of the test compound group over the control group.

[4] = tested on: collagenase; assay: Activity in the living body / absorbability (general statements); conditions: in vivo
[5] = tested on: bone resorption; assay: Test for inhibition of bone resorption: urine hydroxyproline/creatinine ratio in rats on calcium-deficient food; assay type: in vivo, male Wister rats; conditions: for effect on increase in urine hydroxyproline/creatinine ratio (in words): 100 mg/kg p.o., vs control; for Urinary hydroxyproline excretion (ratio to creatinine): single 100 mg/kg p.o., urine 16 hours, control 174 ± 7, normal 134 ± 7, * P < 0.05 vs control (Compound D)
Protocol: Furthermore, an investigation of its suppressive effect was carried out on bone resorption by administering the compound of the present invention to rats kept on a calcium-deficient food and using the urinary hydroxyproline excretion (ratio to creatinine) as an index.
as §2
6-week old male Wister rats (SLC Japan) were kept on a calcium-deficient food (Oriental Yeast, 0.0105-0.012% calcium, 0.62% phosphorus), orally administered 100 mg/kg of compound D or Y in a 0.5% CMC suspension on day 6 and, immediately thereafter, urine was collected for 16 hours under the condition of fasting with free access to water. The urine volume and urinary hydroxyproline and creatinirie content were measured by the method described in Example 3, and the urine hydroxyproline/creatinie ratio was calculated. Statistical analysis was made using the Tukey's method for the superiority of the test compound group over the control group.

[6] = tested on: collagenase; assay: Collagenase activity inhibition rate in blood after oral administration (in mice); assay type: in vivo; conditions: 30 mg/kg p.o.; for Collagenase Inhibition rates in blood after oral administration, After 2 hours: after 2 hours (as printed in head; text says 3 hours)
Protocol: (§3) Test compounds were suspended in 0.5% CMC and orally administered to three mice per group (the dose of the test compound, 30 mg/kg), and after a certain period of time, the blood was collected in the presence of heparin and ice-cooled. Plasma was obtained by centrifugation of this blood at 10,000 rpm for 5 minutes at 4° C. To 400 μl of this plasma was added to 600 μl of distilled water, and heated at 100° C. for 10 minutes. After cooling, the mixture was centrifuged at 10,000 rpm for 5 minutes and filtered using a micro-volume ultrafiltration unit (Molcut II, Millipore) to provide a sample (A) for use in collagenase activity measurement. Using this sample, collagenase activity inhibition rate in blood was determined by the following method.
(§4) The sample (A) above was mixed with a known amount of collagenase (the collagenase used was prepared by the method described in JP-A-3-103178) dissolved in a buffer for measurement (50 mM Tris-HCl buffer, pH 7.5, containing 0.2M sodium chloride, 5 mM calcium chloride, 0.05% Brij-35 and 0.02% sodium azide,), and collagenase activity A was measured according to the method of Nagai et al. (Japanese Journal of Inflammation, 4, 123 (1984)) using a fluorescein isothiocyanate-labeled type-I collagen as a substrate. […] Inhibition rate was determined from the following equation:
(§5) Inhibition rate (%)=(1-A/B)×100

[7] = set-up: species or system mice; conditions: mouse, in vivo, 3000 mg/kg
[8] = tested on: adjuvant arthritis; assay: Adjuvant arthritis model: erythrocyte sedimentation rates; assay type: in vivo, male Lewis rats; conditions: 100 mg/kg at 12-hour intervals for 20 days; for effect on increase in erythrocyte sedimentation rates (in words): vs control; for Erythrocyte sedimentation rates: day 21, control 33 ± 2, normal 1 ± 0.1, ** P < 0.01 vs control (Compound D)
Protocol: as §1
The blood was fully removed on day 21 and used as a sample. Erythrocyte sedimentation measuring apparatus (Matsuyoshi's Erythrocyte Sedimentation rack) was used for the measurement, and statistical analysis was made according to the Dunnett's method for the superiority of the test compound group over the control group.

[9] = tested on: collagenase; assay: Collagenase activity inhibition rate in blood after oral administration (in rats); assay type: in vivo; conditions: 100 mg/kg p.o.
Protocol: as §3, §4, §5
The same procedure as Test Example 1 was followed except that mice were replaced with rats (3 rats/group) and the dose of the tested compounds selected to be 100 mg/kg.

SMILES: CNC(=O)C(NC(=O)C(CC(C)C)C(C)C(=O)NO)c1ccccc1 (single isomer, unassigned) [Compound D]
- swelling (volume increase) of the adjuvant-uninjected hind paw [1]: suppressed the swelling (volume increase) of the adjuvant-uninjected hind paw
- effect on increase in urinary hydroxyproline excretion (in words) ([2]; 100 mg/kg at 12-hour intervals for 20 days): tended to suppress the increase in urinary hydroxyproline excretion
- Urinary hydroxyproline excretion (ratio to creatinine) [2]: 78.4 ± 6.1 μg/mg creatinine
- effect on increase in serum calcium concentration (in words) [3]: significantly suppressed the increase in serum calcium concentration
- Serum calcium conc. [3]: 8.9 ± 0.1 mg/dL
- activity in the living body (in words) [4]: exhibits an excellent activity in the living body
- effect on increase in urine hydroxyproline/creatinine ratio (in words) [5]: exhibited a significant suppression from the level of the control group
- Urinary hydroxyproline excretion (ratio to creatinine) [5]: 144 ± 5 μg/mg creatinine
- Collagenase Inhibition rates in blood after oral administration, After 1 hour [6]: 87%
- Collagenase Inhibition rates in blood after oral administration, After 2 hours [6]: 76%
- death after oral administration [7]: no death was observed
- effect on increase in erythrocyte sedimentation rates (in words) [8]: significantly suppressed the increase in erythrocyte sedimentation rates
- Erythrocyte sedimentation rates [8]: 20 ± 2

SMILES: CNC(=O)C(NC(=O)C(CC(=O)NO)CC(C)C)c1ccccc1 [Compound A, [4-(N-hydroxyamino)-2(R)-isobutylsuccinyl]-L-phenylglycine-N-methylamide]
- Collagenase Inhibition rates in blood after oral administration, After 1 hr. [9]: 100%
- Collagenase Inhibition rates in blood after oral administration, After 3 hrs. [9]: 91%
- Collagenase Inhibition rates in blood after oral administration, After 6 hrs. [9]: 64%
- Collagenase Inhibition rates in blood after oral administration, After 1 hour [6]: 88%
- Collagenase Inhibition rates in blood after oral administration, After 2 hours [6]: 83%

SMILES: CNC(=O)C(NC(=O)C(CC(=O)NO)CC(C)C)c1ccc(O)cc1 [Compound B, [4-(N-hydroxyamino)-2(R)-isobutylsuccinyl]-L-(p-hydroxyphenyl)glycine-N-methylamide]
- Collagenase Inhibition rates in blood after oral administration, After 1 hour [6]: 84%
- Collagenase Inhibition rates in blood after oral administration, After 2 hours [6]: 62%

SMILES: CNC(=O)C(NC(=O)C(CC(C)C)C(CN1CCOCC1)C(=O)NO)c1ccccc1 [Compound C, [4-(N-hydroxyamino)-2(R)-isobutyl-3-(morpholinomethyl)succinyl]-L-phenylglycine-N-methylamide hydrochloride]
- Collagenase Inhibition rates in blood after oral administration, After 1 hour [6]: 75%
- Collagenase Inhibition rates in blood after oral administration, After 2 hours [6]: 64%

SMILES: CNCC(C(=O)NO)C(CC(C)C)C(=O)NC(C(=O)NC)c1ccccc1 [Compound E, [4-(N-hydroxyamino)-2(R)-isobutyl-3-(methylaminomethyl)succinyl]-L-phenylglycine-N-methylamide]
- Collagenase Inhibition rates in blood after oral administration, After 1 hour [6]: 82%
- Collagenase Inhibition rates in blood after oral administration, After 2 hours [6]: 61%

SMILES: CCNC(=O)C(NC(=O)C(CC(=O)NO)CC(C)C)c1ccccc1 [Compound F, [4-(N-hydroxyamino)-2(R)-isobutylsuccinyl]-L-phenylglycine-N-ethylamide]
- Collagenase Inhibition rates in blood after oral administration, After 1 hour [6]: 89%
- Collagenase Inhibition rates in blood after oral administration, After 2 hours [6]: 53%

SMILES: CNC(=O)C(NC(=O)C(CC(=O)NO)CC(C)C)c1ccc(F)cc1 [Compound G, [4-(N-hydroxyamino)-2(R)-isobutylsuccinyl]-L-(p-fluorophenyl)glycine-N-methylamide]
- Collagenase Inhibition rates in blood after oral administration, After 1 hour [6]: 83%
- Collagenase Inhibition rates in blood after oral administration, After 2 hours [6]: 64%

SMILES: CNC(=O)C(NC(=O)C(CC(=O)NO)CC(C)C)c1ccc(C(C)C)cc1 [Compound H, [4-(N-hydroxyamino)-2(R)-isobutylsuccinyl]-L-(p-isopropylphenyl)glycine-N-methylamide]
- Collagenase Inhibition rates in blood after oral administration, After 1 hour [6]: 74%
- Collagenase Inhibition rates in blood after oral administration, After 2 hours [6]: 63%

SMILES: CNC(=O)[C@H](Cc1ccc(OC)cc1)NC(=O)[C@@H](CC(=O)NO)CC(C)C [Known compound X, [4-(N-hydroxyamino)-2(R)-isobutylsuccinyl]-L-O-methyltyrosine-N-methylamide, reference compound]
- Collagenase Inhibition rates in blood after oral administration, After 1 hr. [9]: 45%
- Collagenase Inhibition rates in blood after oral administration, After 3 hrs. [9]: 44%
- Collagenase Inhibition rates in blood after oral administration, After 6 hrs. [9]: 33%
- Collagenase Inhibition rates in blood after oral administration, After 1 hour [6]: 60%
- Collagenase Inhibition rates in blood after oral administration, After 2 hours [6]: 43%

SMILES: CNC(=O)[C@H](Cc1ccccc1)NC(=O)[C@H](CC(C)C)[C@H](CSc1cccs1)C(=O)NO [Known compound Y, [4-(N-hydroxyamino)-2(R)-isobutyl-3(S)-(2-thienyl)thiomethylsuccinyl]-L-phenylalanine-N-methylamide, reference compound]
- Urinary hydroxyproline excretion (ratio to creatinine) [2]: 107.1 ± 6.5 μg/mg creatinine
- effect on increase in serum calcium concentration (in words) [3]: no such effect was noted
- Serum calcium conc. [3]: 9.6 ± 0.1 mg/dL
- effect on increase in urine hydroxyproline/creatinine ratio (in words) [5]: hardly suppressed this increase
- Urinary hydroxyproline excretion (ratio to creatinine) [5]: 161 ± 3 μg/mg creatinine
- Collagenase Inhibition rates in blood after oral administration, After 1 hour [6]: 14%
- Collagenase Inhibition rates in blood after oral administration, After 2 hours [6]: 21%
- effect on increase in erythrocyte sedimentation rates (in words) [8]: no such effect was noted
- Erythrocyte sedimentation rates [8]: 30 ± 3

SMILES: CNC(=O)[C@H](Cc1c[nH]c2ccccc12)NC(=O)[C@@H](CC(=O)NO)CC(C)C [Known compound Z, [4-(N-hydroxyamino)-2(R)-isobutylsuccinyl]-L-tryptophan-N-methylamide, reference compound]
- Collagenase Inhibition rates in blood after oral administration, After 1 hour [6]: 58%
- Collagenase Inhibition rates in blood after oral administration, After 2 hours [6]: 51%
